Test results from patent publication US6541193B2, “Screening the activity of drugs for central nervous system (CNS)” (Council of Scientific & Industrial Research, priority 2001, dated 2003).

Tested on: Sh^5eag^1 mutant flies
Assay: Recovery time from diethyl ether anesthesia in flies fed drug in food
Assay type: in vivo, Drosophila melanogaster
Settings: Sh^5eag^1 males
Procedure: Standard Drosophila manipulation methods were followed. Cultures were grown on a medium containing maize powder, sugar, yeast and Nipagin. Flies were maintained and further manipulated at room temperature. Experimental conditions were kept identical. The double mutant Sh^5eag^1 was generated using standard methods of Drosophila genetics.
Equal number of Sh^5eag^1 males, varying in age between 6-9 days, were treated in 25×100 mm glass vials with either normal food (NF) or food containing 1 mg/ml of phenobarbital sodium (PS; NF+PS) for 5 days. Twenty males were treated in each vial. Flies were first anesthesized with ether and healthy looking individuals shifted to 10 empty vials in such a way that each vial received two flies, one from each treatment. Before shifting, flies from one of the two treatments were marked on their wings for the purpose of identification. Flies were allowed to recover fully. After an hour, each fly pair was subjected to the following test one by one. The two flies, inside a vial with 800 mg of cotton plug, were simultaneously anesthetized by pouring 0.2 ml of diethyl ether on to the plug. After about 1.5 min, during which the vial was gently shaken continuously so that the flies remained at the bottom throughout, the two individuals were immediately shifted to two fresh empty vials. Time at this point was considered 0 min. […]

`CCC1(c2ccccc2)C(=O)NC(=O)NC1=O` [PS, phenobarbital sodium] was tested, and the “effect on recovery from ether anesthesia” value (1 mg/ml in food for 5 days, vs normal food) was “delays recovery from ether anesthesia” and the “recovery time (time to first stand up on legs after etherisation)” value (food containing 1 mg/ml for 5 days, diethyl ether anesthesia, NF control 2.4±0.44 min, p<0.02) was 7.2 ± 1.78 min.
